The values below come from patent US6946277B2, “Method for enhancing cellobiase activity of termitomyces clypeatus using a glycosylation inhibitor” (Council of Scientific and Industrial Research, priority 2001, dated 2005).

In one assay the test system is Trichoderma reesei. The conditions noted are these: cited from earlier work.
For assay [1], the system named is Termitomyces clypeatus. Briefly: Cellobiase activity of culture filtrate of Termitomyces clypeatus grown with glycosylation inhibitors (p-nitro phenyl β-D-glucoside substrate). The format is cell-based. The following applies: for Maximum cellobiase activity: Termitomyces clypeatus in presence of 2-deoxyglucose. How it is done: (§1) The fungus is maintained in agar slants containing (w/w) glucose 5%, potato extract 10%, malt extract 5%, KH2PO4 0.087%, MgSO4, 7H2O 0.05%. Cultivation of the fungus is carried out between temperatures 20-37° C., preferably at 28-30° C. and at pH between 3-8, preferably at 4-6, under aerobic condition in shake flask in liquid medium on a rotary shaker (200-300 strokes per minute). Among the assimilable carbon sources (cellobiose, mannose, fructose, xylose, arabinose, starch, dextrin, cellulose, cotton, xylan and agrowastes like baggasse powder, rice-straw powder, wheat bran, corn cob powder, corn powder; in presence of TCA cycle acids like succinate, fumarate, maleate or amino acids like aspartate, glutamate, serine, histidine and alanine or glucose analogues like D-glucosamine) D-cellobiose with succinate served as one of the best carbon sources in the concentration range of 0.5-2%(w/v). Among the assimilable nitrogen sources (ammonium chloride, ammonium nitrate, ammonium di hydrogen phosphate, potassium nitrate and organic nitrogen sources such as malt extract, yeast extract, potato extract, soya-peptone and bactopeptone) ammonium di hydrogen phosphate was used. Among the glycosylation inhibitors (Tunicamycin, deoxynojirimycin, 2-deoxy-D-glucose and D-glucono-lactone) 2-deoxy glucose was preferred (Table 1). Detergents used were Tween 20, Tween-80, or Tween-100. Initial pH of the medium may be maintained at 3-7, preferably at 4.5. Inoculum is prepared in the medium in polypropylene conical flask with sterile glass balls (1-1.5 cm in diameter) 3-4 numbers in 250-ml flask. The fine mycelia grown in liquid medium after 2-4 days of growth were added to the fermentation medium at the ratio of 1:10 (v/v). Optimum production of enzyme took place after 3 days of inoculation, between 4-6th days. The culture filtrate is freed from mycelia by any known method of filtration. Cellobiase activity of the culture medium was assayed using p-nitro phenyl β-D-glucoside as substrate. Reference may be made to Khowala. S. And Sengupta. S. (1992) Enzyme and microbial Technology, volume 14, pages144-149. One unit of activity was taken as the amount of enzyme, which could liberate one micromole of p-nitro phenol from p-nitro phenyl β-D-glucoside in the reaction mixture incubated at 50° C. for 30 minutes (Table 1 and 2). Endo-glucanase and cellobiohydrolase activities were measured by dinitrosalicylic acid reagent using carboxy methylcellulose (Sigma chemical co.) and crystalline cellulose (Sigma chemical co.) respectively as substrate (Table 2). Reference may be made to Sumner J. B. and Sumner G. (1949) in Laboratory Experiments in Chemistry, Academic press, New York, page 38. One unit of enzyme was considered as the amount of enzyme that could liberate one micromole of glucose equivalent per minute in buffer at pH 5.0 at 50° C.
[…] The 250 ml conical flask containing 50 ml of medium were autoclaved for 20 minutes at 15 pounds per square inch pressure, where separately autoclaved ammonium di hydrogen orthophosphate at the concentration of 2.4% w/w was added to the medium after sterilization. The medium was cooled and was inoculated at the rate of 10% mycelia (blended) of the fungus developed earlier in flasks with glass marbles. The culture was grown in the medium for 4 days at temperatures 28°-32° C. on a rotary-shaker. The culture filtrate was freed from mycelia and the clear supernatant was used as a source of enzymes. Cellobiase activity was 90 units per ml, endo-glucanase was 4.5 units per ml, and cellobiohydrolase was 3.5 units per ml, respectively. Cellobiase activity in absence of 2-deoxy-D-glucose in the control medium was 1.44 units per ml.
The fungus Termitomyces clypeatus IICB-411 was grown in a medium containing (w/w, %): Cellobiose 1, 2-deoxy-D-glucose 0.5, mannose 0.5, sodium succinate 0.5, KH2PO4 0.087, MgSO4, 7H2O 0.05 at pH 4.5. […]

Assay [2] concerns Termitomyces clypeatus. Briefly: Endo-glucanase activity of culture filtrate (carboxy methylcellulose, dinitrosalicylic acid reagent). The format is cell-based. The following applies: for endo-glucanase: 4 days, pH 4.5. The protocol: as §1
(§2) The fungus Termitomyces clypeatus IICB-411 was grown in a medium containing (w/w, %): Cellobiose 1, 2-deoxy-D-glucose 0.30, sodium succinate 0.5, KH2PO4 0.087, MgSO4, 7H2O 0.05 at pH 4.5. The 250 ml conical flask containing 50 ml of medium were autoclaved for 20 minutes at 15 pounds per square inch pressure, where separately autoclaved ammonium di hydrogen orthophosphate at the concentration of 2.4% w/w was added to the medium after sterilization. The medium was cooled and was inoculated at the rate of 10% mycelia (blended) of the fungus developed earlier in flasks with glass marbles. The culture was grown in the medium for 4 days at temperatures 28°-32° C. on a rotary-shaker. The culture filtrate was freed from mycelia and the clear supernatant was used as a source of enzymes. Cellobiase activity was 90 units per ml, endo-glucanase was 4.5 units per ml, and cellobiohydrolase was 3.5 units per ml, respectively. Cellobiase activity in absence of 2-deoxy-D-glucose in the control medium was 1.44 units per ml. […]

Assay [3] relates to Termitomyces clypeatus. Briefly: Cellobiohydrolase activity of culture filtrate (crystalline cellulose, dinitrosalicylic acid reagent). The following applies: for cellobiohydrolase: 4 days, pH 4.5. It is filed as cell-based. The protocol: as §1, §2
For a further assay, the system named is Dichomitus squalenes. Nature of the assay: Cellobiase activity of Dichomitus squalenes in a similar medium. The format is cell-based. The following applies: Dichomitus squalenes in presence of 2-deoxyglucose.
In another assay the test system is T. clypeatus. Nature of the assay: Growth of the fungus T. clypeatus in presence of 2-deoxy-D-glucose. The format is cell-based, Termitomyces clypeatus. The following applies: at higher concentrations (above 0.05 to 5% w/v). The source says:
The inventive step is the addition of 2-deoxy-D-glucose in the growth medium in presence of assimilable carbon and nitrogen sources and other nutrients. 2-deoxy-D-glucose is non-fermentable analogue of glucose and mannose, and is known to interfere in formation of wall polysaccharides in yeast [Reference may be made to European Journal of Biochemistry (1975), Volume 54, pages 459-467] and to increase protein secretion in Trichoderma reesei [Reference may be made to Journal of General Microbiology (1989) Volume 135, pages 301-307]; but it acts as a glycosylation inhibitor, increases synthesis and secretion of extracellular proteins in Termitomyces clypeatus, when used in the concentration range of 0.05 to 5%(w/v) and high cellobiase activity is produced in presence of cellobiose, as determined in the applicants laboratory.

The mark [4] stands for this setting: Control medium + 2-deoxy-D-glucose 300 μg/ml (Example 2), Table 2.
[5] abbreviates: Control medium + 2-deoxy-D-glucose 1 mg/ml + Mannose 500 μg/ml.
[6] abbreviates: Control medium + 2-deoxyglucose 1 mg/ml (Example 1), Table 2.
The mark [7] stands for this setting: Example 1: 2-deoxy-D-glucose 0.30 % w/w.
The mark [8] stands for this setting: Example 2: 2-deoxy-D-glucose 0.5 % + mannose 0.5 % w/w.
Setting [9] is: Example 3: 2-deoxy-D-glucose 1 % w/w.

Tunicamycin: the “effect on secretion of proteins” value with Trichoderma reesei (Tunicamycin 0-50 μg/ml) is given as “no effect”. The Cellobiase activity with Termitomyces clypeatus [1] (Control + Tunicamycin 10 μg/ml) was determined as 1.2075 units/ml.
`O=C1O[C@H](CO)[C@@H](O)[C@H](O)[C@H]1O` [glucono-lactone, D-glucono-lactone]: in the assay on Termitomyces clypeatus [1] (Control + glucono-lactone 2 mg/ml), the Cellobiase activity is recorded as 6.1820 units/ml.
On to `O=CC[C@@H](O)[C@H](O)[C@H](O)CO` [2-deoxy-D-glucose], for which the Endo-glucanase activity was found to be 4.637 units/ml in the assay with Termitomyces clypeatus [2] (setting [4]), 1.086 units/ml in the assay with Termitomyces clypeatus [2] (setting [5]) and 4.112 units/ml in the assay with Termitomyces clypeatus [2] (setting [6]). For the same compound, the endo-glucanase is listed as 4.5 units per ml in the assay on Termitomyces clypeatus [2] (setting [7]), 6 units per ml with Termitomyces clypeatus [2] (setting [8]) and 4 units per ml in the assay on Termitomyces clypeatus [2] (setting [9]). For the same compound, the Cellobiohydrolase activity is given as 3.600 units/ml with Termitomyces clypeatus [3] (setting [4]), 4.873 units/ml with Termitomyces clypeatus [3] (setting [5]) and 3.546 units/ml with Termitomyces clypeatus [3] (setting [6]). In addition, the cellobiohydrolase in the assay with Termitomyces clypeatus [3] (setting [7]), in the assay on Termitomyces clypeatus [3] (setting [8]) and in the assay with Termitomyces clypeatus [3] (setting [9]) was 3.5 units per ml throughout. The Maximum cellobiase activity in the assay with Dichomitus squalenes is on record as 0.05^C U/ml; with Termitomyces clypeatus [1] (Example-1), 90.0 U/ml; in the assay with Termitomyces clypeatus [1] (Example-2), 140.0 U/ml; in the assay with Termitomyces clypeatus [1] (Example-3) it was 50.0 U/ml. The “biosynthesis of extracellular as well as intracellular protein” value in the assay with Trichoderma reesei (2-deoxy-D-glucose 0-150 μg/ml) was “inhibited”. In the assay with T. clypeatus, the “growth of the fungus” value is on record as “inhibit growth”. The Cellobiase activity with Termitomyces clypeatus [1] (Control + 2-deoxy-D-glucose 0.05 mg/ml) is 2.236 units/ml; in the assay on Termitomyces clypeatus [1] (Control + 2-deoxy-D-glucose 1 mg/ml), 50.097 units/ml; with Termitomyces clypeatus [1] (Control + 2-deoxy-D-glucose 5 mg/ml) it was 0.081 units/ml; with Termitomyces clypeatus [1] (setting [4]), 90.020 units/ml; with Termitomyces clypeatus [1] (setting [5]), 140.60 units/ml; with Termitomyces clypeatus [1] (setting [6]) it was 50.097 units/ml. Also, the Cellobiase activity in the assay with Termitomyces clypeatus [1] (Example 1: 2-deoxy-D-glucose 0.30 % w/w, 4 days, pH 4.5) is 90 units per ml; with Termitomyces clypeatus [1] (Example 2: 2-deoxy-D-glucose 0.5 % + mannose 0.5 % w/w, 4 days, pH 4.5), 140 units per ml; in the assay with Termitomyces clypeatus [1] (Example 3: 2-deoxy-D-glucose 1 % w/w, 4 days, pH 4.5) it was 50 units per ml. Moreover, the “enhanced production and secretion of enzyme” value in the assay with Termitomyces clypeatus [1] (at lower concentrations) is given as “the effect is not observed”.
Turning to `OC[C@H]1NC[C@H](O)[C@@H](O)[C@@H]1O` [1-deoxynojirimycin], the Cellobiase activity in the assay on Termitomyces clypeatus [1] (Control + 1-deoxynojirimycin 80 μM) was determined as 1.4085 units/ml.
